# According to patent US12377092B2, “Polycomb inhibitors and uses thereof” (FONDAZIONE ISTITUTO FIRC DI ONCOLOGIA MOLECOLARE (IFOM), priority 2017, dated 2025):
# “Also recorded” adds a separate entry of the source. Read-outs that look alike come from different tables or passages of the source.
# What was measured:
# Type in all cases: cell-based, mouse
# Conditions in all cases: 72 hours
# [1] = system: EndMT markers (Klf4, Sca1 and Fsp1); test: Real time (RT-PCR) analysis of EndMT markers, wild type and CCM3 knock out immortalized lung endothelial cells
# Method: (§1) Cells were seeded 6.3×10^4 cells/cm^2. The day after, PTC209 and UNC1999 were added to the confluent cells. Drugs were left for one or three days depending on the aim of the experiment. Final concentrations used for the two drugs were: 1 uM PTC209 and 5 uM UNC1999.
# RNA extraction was performed both with (A) RNeasy kits (Promega) or (B) RNAeasy Mini Kit (QIAGEN). The latter allows also the extraction of proteins from the same sample. The RNA (500 ng) was reverse transcribed with random hexamers (High Capacity cDNA Archive kits; Applied Biosystems) in a final volume of 30 uL. Reaction were made with a thermocycler (Eppendorf) 10 min at 25° C. followed by 2 hours at 37° C. cDNA (5 ng) was amplified in triplicate in a reaction volume of 15 uL using TaqMan Gene Expression Assays (Applied Biosystems) in a ABI/Prism 7900 HT using a pre PCR step of 10 min at 95° C., followed by 40 cycles of 15 seconds at 95° C. and 60 seconds at 60° C. For each sample, the expression level was determined with the comparative threshold cycle (Ct) method, and normalized to the housekeeping genes encoding 18S, glyceraldehyde-3-phosphate dehydrogenase (GAPDH) and hypoxanthine-guanine phosphoribosyltransferase (hprt1). Ct or threshold cycle, represents the PCR cycle at which an increase in reporter fluorescence above a base-line signal can first be detect.
# (§2) Wild type and CCM3 knock out cells were treated with either PTC209 or DMSO starting from the day after seeding, when cells were confluent. For this experiment cells were lysed for western blot and real-time analysis after 72 hours of treatment to check a long-term effect of PTC209.
# (§3) To perform these experiments, immortalized lung endothelial cells both wild type and CCM3 knock out were treated, with the same experimental strategy used for PTC209, with UNC1999 for 72 hours and subsequently lysed for western blot and real time analysis. UNC1999 was used in its specific optimal concentration, which was different to PTC209. As control DMSO was given to the cells in a volume equal to the volume of DMSO in which UNC1999 was previously dissolved to rich the optimal concentration.
# (§4) Briefly, wild type and CCM3 knock out cells were treated with either PTC209, UNC1999 or a combination of the two. PTC209 and UNC1999 were administrated at the same concentration used for the single treatment and DMSO was given as control in a volume equal to the sum of volumes of DMSO in which UNC1999 and PTC209 were previously dissolved.
# [2] = system: EndMT markers (Klf4, Sca1 and Fsp1)
# Method: as §1
# (§5) Confluent cells were lysed with boiling modified Laemi sample Buffer (2% SDS, 20% glycerol, and 125 mM Tris-HCl, pH 6.8). Lysates were incubated for 10 minutes at 100° C. to allow proteins denaturation. Protein concentration was estimated using the BCA Protein Assay Kit (Pierce). Equal amount of proteins was loaded on a gel, separated by SDS-PAGE and transferred to a Protran Nitrocellulose Membrane (Whatman) 0.2 um pores. The membranes were blocked for 1 hour at RT in Tris Buffered Saline (TBS: NaCl 150 mM, Tris-HCl 10 mM pH 7.4) plus 0.1% Tween-20 containing 5% BSA or milk. The membranes were incubated with primary antibodies diluted in TBST (TBS plus 0.1% Tween-20) containing 5% of either BSA or milk overnight at 4° C. Next, membranes were rinsed three times with TBST for 5 minutes each and incubated for 45 minutes at RT with HRP-linked secondary antibodies diluted in TBST containing 5% BSA/milk. Membranes were rinsed three times with TBST for 5 minutes each and specific bindings were detected by enhanced chemiluminescence (ECL) system (Amersham Bioscience) using ChemiDoc XRS gel imaging system (Bio-Rad).
# [3] = system: EndMT markers (Klf4, Sca1 and Fsp1); test: Western blot analysis of EndMT markers, wild type and CCM3 knock out immortalized lung endothelial cells
# Method: as §1, §5, §2, §3, §4
# [4] = CCM3 knock out cells, 1 uM PTC209, 5 uM UNC1999, vs DMSO
# [5] = wild type cells (physiological condition), CCM3 model
compound,measurement,setting,value
"COc1cc(Br)c(Nc2nc(-c3c(C)nc4ncccn34)cs2)c(Br)c1 [PTC209, N-(2,6-dibromo-4-methoxyphenyl)-4-(2-methylimidazo[1,2-a]pyrimidin-3-yl)thiazol-2-amine]",Klf4 transcript up-regulation induced by CCM3 deletion (real time analysis),[1]; CCM3 knock out cells,completely rescued
same,"Klf4, Sca1 and Fsp1 transcripts (real time analysis)",[1]; [4],downregulated
same,Klf4 transcript (real time analysis),[1]; [5],not affected
same,"EndMT markers (Klf4, Sca1, Fsp1) protein levels (western blot)","[2]; CCM1 knock out cells, vs DMSO",strong inhibition
same,Klf4 protein (western blot),"[2]; wild type cells (physiological condition), CCM1 model",not downregulated
same,Klf4 protein up-regulation induced by CCM3 deletion (western blot),[3]; CCM3 knock out cells,completely rescued
same,levels of Klf4 and Sca1 protein in treated CCM3 knock out cells versus wild type cells,"[3]; CCM3 knock out cells, 1 uM PTC209",comparable with the levels expressed by wild type cells
same,"EndMT markers (Klf4, Sca1, Fsp1) protein expression (western blot)",[3]; [4],strongly downregulated; also recorded: inhibition of the upregulation
same,Klf4 protein (western blot),[3]; [5],not affected
